Test results taken from paper PMC10054418, “Eighteen Novel Bioactive Peptides from Monkfish (Lophius litulon) Swim Bladders: Production, Identification, Antioxidant Activity, and Stability” (Marine Drugs, 2023).
Where two headings read alike, the source gives them in different places. Where a SMILES comes first, the peptide text is derived from it.

How the values were obtained:
H2O2-damaged HepG2 cells = test: Cytoprotection on H2O2-damaged HepG2 cells (MTT); assay type: cell-based, Human
Protocol: […] Briefly, the HepG2 cells were incubated in a 96-well plate for 24 h. […] After removing peptides, H2O2 was added to the sample, GSH and model groups. After 24 h, the 96-wells were rinsed twice with PBS and used MTT method to determine the cell viability:Cell viability = (ODsample/ODcontrol) × 100%.

pepsin and trypsin = test: Stability in simulated gastrointestinal (GI) digestion, read out as O2−· scavenging activity; conditions: 2 h of pepsin digestion, peptide 5.0 mg/mL
Protocol: The reaction was initiated by adding 1 mL of phenazine methosulphate (PMS) solution (120 μM) to the reaction mixture. The absorbance was measured at 560 nm against the corresponding blank after incubation for 5 min at 25 °C. The scavenging capacity of the O2−· was calculated using the following equation: O2−·scavengingactivity(%)=[(Ac−As)/Ac]×100%, where Ac is the absorbance without the sample and As is the absorbance with the sample.

[1] = cited from earlier work
Excerpt: DPPH· is a very stable radical and is commonly used as a substrate to assess antioxidant activity. MSP7 and MSP8 have a strong hydrogen donating capacity and can reduce stable DPPH·.

[2] = cited from earlier work; remark: listed apart in the source
Excerpt: HO· is a kind of strong free radical, which can not only cause lipid peroxidation in vivo but also attack polysaccharides, nucleic acids and other macromolecules, causing serious damage to cells.

[3] = cited from earlier work; remark: listed apart in the source
Excerpt: O2−· reacts with metal ions in the Fenton reaction to form HO· that triggers lipid peroxidation and causes oxidative damage to cells. MSP1, MSP2, MSP8, MSP10 and MSP13 have a strong ability to scavenge O2−· .

[4] = cited from earlier work; remark: listed apart in the source
Excerpt: ABTS^+· is a single oxygen ion radical with an absorption peak at 734 nm, which can be reduced by antioxidants leading to a decrease in absorbance.

[5] = APs from seaweed (Eucheuma cottonii)
[6] = APs from tuna (Katsuwonus pelamis) cardiac arterial bulbs
[7] = APs from tuna cardiac arterial bulbs
[8] = APs from Spanish mackerel (Scomberomorous niphonius) skin
[9] = APs from Antarctic krill (Euphausia superba)
[10] = APs from skin (printed after monkfish muscle)

In the case of `N[C@@H](Cc1ccc(O)cc1)C(=O)N[C@@H](CC(=O)O)C(=O)N[C@@H](Cc1ccc(O)cc1)C(=O)N[C@@H](CC(=O)O)C(=O)O` [MSP1, Tyr-Asp-Tyr-Asp] (H-YDYD-OH), the “viability of H2O2-injured HepG2 cells” value (H2O2-damaged HepG2 cells; peptide at 200 μmol/L, 8 h pre-incubation, then H2O2 (300 µM) 24 h, MTT, mean ± SD of triplicate, model group 51.08 ± 1.97%) is reported as 82.14 ± 3.28%.
With `NC(=O)CC[C@H](N)C(=O)N[C@@H](CC(=O)O)C(=O)N[C@@H](Cc1ccc(O)cc1)C(=O)N[C@@H](CC(=O)O)C(=O)O` [MSP2, Gln-Asp-Tyr-Asp] (H-QDYD-OH) the “Declined percentage of O2−· scavenging activity, Treated with Pepsin” value (“Declined percentage” for short) (pepsin and trypsin) was −15.13%.
In the case of `N=C(N)NCCC[C@H](NC(=O)CN)C(=O)N[C@@H](Cc1c[nH]c2ccccc12)C(=O)O` [MSP7, Gly-Arg-Trp] (H-Gly-Arg-Trp-OH), the “Declined percentage” value (pepsin and trypsin) is reported as −24.34%.
In the case of `C[C@H](N)C(=O)N[C@@H](CCCNC(=N)N)C(=O)N[C@@H](Cc1c[nH]c2ccccc12)C(=O)O` [MSP8, Ala-Arg-Trp] (H-Ala-Arg-Trp-OH), the “viability of H2O2-injured HepG2 cells” value (H2O2-damaged HepG2 cells; 8 h, 200 μmol/L) is reported as 81.32 ± 2.45% and the “Declined percentage” value (pepsin and trypsin) is reported as −24.93%.
For `NCCCC[C@H](NC(=O)CNC(=O)CNC(=O)[C@H](CC(=O)O)NC(=O)[C@@H](N)CC(=O)O)C(=O)O` [MSP10, Asp-Asp-Gly-Gly-Lys] (H-DDGGK-OH), the “Declined percentage” value (pepsin and trypsin) was −21.98%.
In the case of “EDIVCW [literature AP from monkfish muscle]”, the “EC50 on DPPH·” value ([1]; APs from monkfish muscle) is listed as 390 µg/mL, the “EC50 on HO·” value ([2]; APs from monkfish muscle) is listed as 610 µg/mL and the “EC50 on O2−·” value ([3]; APs from monkfish muscle) is listed as 760 µg/mL.
For “FYKA [literature AP from seaweed (Eucheuma cottonii)]”, the “EC50 on DPPH·” value [1, 5] is listed as 2560 µg/mL and the “EC50 on O2−·” value ([3]; APs from seaweed) is listed as 1910 µg/mL.
In the case of “GEGQR [literature AP from tuna (Katsuwonus pelamis) cardiac arterial bulbs]”, the “EC50 on DPPH·” value [1, 6] is given as 2257 µg/mL, the “EC50 on O2−·” value [3, 7] is given as 2143 µg/mL and the “EC50 on ABTS^+·” value [4, 7] is given as 1218 µg/mL.
In the case of “GEQSN [literature AP from tuna (Katsuwonus pelamis) cardiac arterial bulbs]”, the “EC50 on DPPH·” value [1, 6] is listed as 2054 µg/mL and the “EC50 on O2−·” value [3, 7] is listed as 1857 µg/mL.
In the case of “GHHAAA [literature AP from tuna milt (also printed under tuna roes)]”, the “EC50 on ABTS^+·” value ([4]; APs from tuna milt) is listed as 1120 µg/mL.
For “GPTGE [literature AP from Spanish mackerel (Scomberomorous niphonius) skin]”, the “EC50 on DPPH·” value [1, 8] is given as 1420 µg/mL.
In the case of “IDSQ [literature AP from Antarctic krill (Euphausia superba)]”, the “EC50 on HO·” value [2, 9] is listed as 2570 µg/mL and the “EC50 on O2−·” value ([3]; APs from Antarctic krill) is listed as 1450 µg/mL.
In the case of “IEEEQ [literature AP from red stingray (Dasyatis akajei) cartilages]”, the “EC50 on ABTS^+·” value ([4]; APs from red stingray (Dasyatis akajei) cartilages) is given as 180 µg/mL.
In the case of “PSYV [literature AP from loach (Misgurnus anguillicaudatus) meat]”, the “EC50 on HO·” value ([2]; AP from loach (Misgurnus anguillicaudatus) meat) is given as 2640 µg/mL.
For “PYFK [literature AP from scalloped hammerhead sharks (Sphyrna lewini) muscle]”, the “EC50 on DPPH·” value ([1]; APs from scalloped hammerhead sharks (Sphyrna lewini) muscle) is listed as 4110 µg/mL and the “EC50 on ABTS^+·” value ([4]; APs from scalloped hammerhead sharks muscle) is listed as 120 µg/mL.
For “PYGAKG [literature AP from Spanish mackerel (Scomberomorous niphonius) skin]”, the “EC50 on DPPH·” value [1, 8] is listed as 3020 µg/mL.
For “SMDV [literature AP from tuna milt (also printed under tuna roes)]”, the “EC50 on ABTS^+·” value ([4]; APs from tuna milt) is listed as 1160 µg/mL.
In the case of “VEKT [literature AP from Antarctic krill (Euphausia superba)]”, the “EC50 on HO·” value [2, 9] is listed as 1530 µg/mL and the “EC50 on O2−·” value ([3]; APs from Antarctic krill) is listed as 860 µg/mL.
In the case of “VGGRP [literature AP from grass carp (Ctenopharyngodon idella) skin]”, the “EC50 on HO·” value ([2]; AP from grass carp (Ctenopharyngodon idella) skin) is given as 2060 µg/mL.
In the case of “YGPM [literature AP from Spanish mackerel skin]”, the “EC50 on DPPH·” value [1, 8] is given as 720 µg/mL, the “EC50 on HO·” value [2, 10] is given as 880 µg/mL and the “EC50 on O2−·” value [3, 10] is given as 730 µg/mL. For the same compound, the “EC50 on ABTS^+·” value ([4]; APs from monkfish skin as printed) was 820 µg/mL.
In the case of “YSKT [literature AP from seaweed (Eucheuma cottonii)]”, the “EC50 on DPPH·” value [1, 5] is listed as 1710 µg/mL.
In the case of “YWDAW [literature AP from monkfish muscle]”, the “EC50 on DPPH·” value ([1]; APs from monkfish muscle) is listed as 510 µg/mL, the “EC50 on HO·” value ([2]; APs from monkfish muscle) is listed as 320 µg/mL and the “EC50 on O2−·” value ([3]; APs from monkfish muscle) is listed as 480 µg/mL.
